Data taken from ChEMBL document CHEMBL4513152, “CO-ADD screening of Yantai University (China) compounds”.
In brackets after ≈: the same amount, converted by molar mass.

Experiments:
Candida albicans = experiment: microbe, parasite or virus in culture; details: ATCC 90028, ASSAY_TEST Inhibition of Fungal Growth, detection method Absorption (OD530), plate type 384well, NBS, CORNING #3640
Description: Antifungal activity against Candida albicans ATCC 90028 (CO-ADD:FG_001); MIC in YNB media using NBS plates, by OD630

Staphylococcus aureus = experiment: microbe, parasite or virus in culture; details: ATCC 43300, 18 h, ASSAY_TEST Inhibition of Bacterial Growth, detection method Absorption (OD600), MEDIA CAMHB, plate type 384well, NBS, CORNING #3640
Description: Antibacterial activity against Staphylococcus aureus MRSA ATCC 43300 (CO-ADD:GP_020); MIC in CAMBH media, using NBS plates, by OD(600)

HEK293 = experiment: cells; assay type: functional; details: Homo sapiens, ATCC CRL1573, HEK293; ASSAY_TEST Inhibition of Cell Viability; detection method Resazurin; Fluorescence (ex560/em590); MEDIA DMEM with 10% FBS; plate type 384well; TC; CORNING #3712; time 18 hr
Escherichia coli = experiment: microbe, parasite or virus in culture; details: ATCC 25922, 18 h, ASSAY_TEST Inhibition of Bacterial Growth, detection method Absorption (OD600), MEDIA CAMHB, plate type 384well, NBS, CORNING #3640
Description: Antibacterial activity against Escherichia coli ATCC 25922 (CO-ADD:GN_001); MIC in CAMBH media using NBS plates, by OD(600)

Acinetobacter baumannii = experiment: microbe, parasite or virus in culture; details: ATCC 19606, 18 h, ASSAY_TEST Inhibition of Bacterial Growth, detection method Absorption (OD600), MEDIA CAMHB, plate type 384well, NBS, CORNING #3640
Description: Antibacterial activity against Acinetobacter baumannii ATCC 19606 (CO-ADD:GN_034); MIC in CAMBH media using NBS plates, by OD600

Pseudomonas aeruginosa = experiment: microbe, parasite or virus in culture; details: ATCC 27853, 18 h, ASSAY_TEST Inhibition of Bacterial Growth, detection method Absorption (OD600), MEDIA CAMHB, plate type 384well, NBS, CORNING #3640
Description: Antibacterial activity against Pseudomonas aeruginosa ATCC 27853 (CO-ADD:GN_042); MIC in CAMBH media using NBS plates, by OD(600)

Klebsiella pneumoniae = experiment: microbe, parasite or virus in culture; details: ATCC 700603, 18 h, ASSAY_TEST Inhibition of Bacterial Growth, detection method Absorption (OD600), MEDIA CAMHB, plate type 384well, NBS, CORNING #3640
Description: Antibacterial activity against Klebsiella pneumoniae MDR ATCC 70063 (CO-ADD:GN_003); MIC in CAMBH media using NBS plates, by OD(600)

Description for Cryptococcus neoformans: Antifungal activity against Cryptococcus neoformans H99 ATCC 208821 (CO-ADD:FG_002); MIC in YNB media using NBS plates, by Resazurin OD(600-570)

| MIC (Candida albicans) [µg/mL] | MIC (Staphylococcus aureus) [µg/mL] | MIC (Escherichia coli) [µg/mL] | MIC (Cryptococcus neoformans) [µg/mL] | MIC (Acinetobacter baumannii) [µg/mL] | MIC (Pseudomonas aeruginosa) [µg/mL] | MIC (Klebsiella pneumoniae) [µg/mL] | Compound | CC50 (HEK293) [µg/mL] |
| --- | --- | --- | --- | --- | --- | --- | --- | --- |
| 32 (≈ 44.4 µM) | 16 (≈ 22.2 µM) | > 32 | 16 (≈ 22.2 µM) | > 32 | > 32 | > 32 | CC(=O)O[C@H]1C[C@@]2(C)C(C[C@@H](O)C3[C@@]4(C)CC[C@@H](OC(=O)CCCCCN)[C@@H](C)C4CC[C@@]32C)/C1=C(\CCC=C(C)C)C(=O)OCc1ccccc1 (some centres undefined) | 8.27 (≈ 11.5 µM) |
| > 32 | 32 (≈ 44.3 µM) | > 32 | > 32 | > 32 | > 32 | > 32 | CC(=O)O[C@H]1C[C@@]2(C)C(C[C@@H](O)C3[C@@]4(C)CC[C@@H](O)[C@@H](C)C4CC[C@@]32C)/C1=C(\CCC=C(C)C)C(=O)O/C(=N/C1CCCCC1)NC1CCCCC1 (some centres undefined) | 19.9 (≈ 27.5 µM) |
| > 32 | > 32 | > 32 | > 32 | > 32 | > 32 | > 32 | CC(=O)O[C@H]1C[C@@]2(C)C(C[C@@H](O)C3[C@@]4(C)CC[C@@H](OC(=O)C(N)Cc5ccccc5)[C@@H](C)C4CC[C@@]32C)/C1=C(\CCC=C(C)C)C(=O)OCc1ccccc1 (some centres undefined) | > 32 |
| 32 (≈ 48.2 µM) | > 32 | > 32 | 16 (≈ 24.1 µM) | > 32 | > 32 | > 32 | CC(=O)O[C@H]1C[C@@]2(C)C(C[C@@H](O)C3[C@@]4(C)CC[C@@H](OC(=O)CN)[C@@H](C)C4CC[C@@]32C)/C1=C(\CCC=C(C)C)C(=O)OCc1ccccc1 (some centres undefined) | 10.8 (≈ 16.3 µM) |
| > 32 | 8 (≈ 11.9 µM) | > 32 | > 32 | > 32 | > 32 | > 32 | CCN/C(=N\CCCN(C)C)OC(=O)/C(CCC=C(C)C)=C1/C2C[C@@H](O)C3[C@@]4(C)CC[C@@H](O)[C@@H](C)C4CC[C@]3(C)[C@@]2(C)C[C@@H]1OC(C)=O (some centres undefined) | 15.4 (≈ 22.9 µM) |
| > 32 | ≤ 0.25 | > 32 | > 32 | > 32 | > 32 | > 32 | CC(=O)O[C@H]1C[C@@]2(C)C(C[C@@H](O)C3[C@@]4(C)CC[C@@H](O)[C@@H](C)C4CC[C@@]32C)/C1=C(\CCC=C(C)C)C(=O)On1nnc2ccc(Cl)cc21 (some centres undefined) | > 32 |
| > 32 | 32 (≈ 42.4 µM) | > 32 | > 32 | > 32 | > 32 | > 32 | CC(=O)O[C@H]1C[C@@]2(C)C(C[C@@H](O)C3[C@@]4(C)CC[C@@H](OC(=O)c5ccccc5C(=O)O)[C@@H](C)C4CC[C@@]32C)/C1=C(\CCC=C(C)C)C(=O)OCc1ccccc1 (some centres undefined) | 20.6 (≈ 27.3 µM) |
| > 32 | ≤ 0.25 | > 32 | > 32 | > 32 | > 32 | > 32 | CC(=O)O[C@H]1C[C@@]2(C)C(C[C@@H](O)C3[C@@]4(C)CC[C@@H](O)[C@@H](C)C4CC[C@@]32C)/C1=C(\CCC=C(C)C)C(=O)O (some centres undefined) | > 32 |
